Measurements as given in US5849259A, “3-,8-substituted deuteroporphyrin derivatives, pharmaceutical agents containing the latter and process for their production” (priority 1992, dated 1998).

Assays:
Format in all cases: in vivo, nude mice (Balb/c nu/nu)
[1] = Tissue concentrations by ICP-AES after 0.1 mmol/kg i.v. in nude mice with subcutaneously implanted colon cancers (HT29, WiDr)
Protocol: (§1) a) 9 nude mice (Balb/c nu/nu) with subcutaneously implanted colon cancers (HT29, WiDr) were each administered by i.v. 0.1 mmol/kg of the mesoporphyrin derivative of example 1b (10 mmol/l dissolved in bidistilled water, pH 7.2, 37° C.). After 0.5, 3 and 24 hours the animals were killed and dissected. The tissue concentrations were determined after corresponding working-up (HNO3 conc.) by ICP-AES and calculated for % of the administered dose per gram of tissue net weight.
e) 9 nude mice (Balb/c nu/nu) with subcutaneously implanted colon cancers (HT29 and WiDr) were each administered by i.v. 0.1 mmol/kg of the deuteroporphyrin derivative of the compound according to example 1c (10 mmol/l dissolved in bidistilled water, pH 7.2, 37° C.). After 0.5, 3 and 24 hours, the animals were killed and dissected. The tissue concentrations were determined after corresponding working-up (HNO3 conc.) by ICP-AES and calculated for % of the administered dose per gram of tissue net weight. Moreover, tissue relaxation times T1 and T2 were determined (Bruker minispec pc 120).
as §1, with “9” for “a) 9”, “8e” for “1b”, “hours,” for “hours”
as §1, with “9” for “a) 9”, “0.1.” for “0.1”, “16f” for “1b”, “0.5 and” for “0.5,”, “3” for “3 and 24”
as §1, with “9” for “a) 9”, “18d” for “1b”, “0.5 and” for “0.5,”, “hours,” for “and 24 hours”
as §1, with “9” for “a) 9”, “19e” for “1b”, “hours,” for “hours”

[2] = as above; conditions: 2 hours p.i. (so in the source)
[3] = tested on: HT29 and WiDr colon cancers; assay: Enhancement (signal intensity change, NMR imaging) in tissues with HT29/WiDr tumors, Example 22 Table 2
[4] = tested on: HT29 and WiDr colon cancer; assay: Signal intensity change in tissues of tumor-bearing (HT29 and WiDr colon cancer) nude mice, example 2c, 0.05 mmol/kg; conditions: 0.05 mmol/kg i.v.; for enhancement, HT29 / enhancement, Kidneys / enhancement, Liver / enhancement, Muscle / enhancement, WiDr: time 0 = 100
Protocol: On a Bruker Biospec nuclear spin tomograph (2.35 Tesla), the signal intensity change in various tissues of tumor-bearing (HT29 and WiDr colon cancer) nude mice (Balb/c nu/nu) was studied after i.v. administration of 0.05 mmol/kg of the compound according to example 2c (10 mmol/l, pH 7.2; 37° C. in bidistilled water). The measurement takes place with a multi slice single echo sequence (MSSE). Imaging parameters: TR: 400 ms, TE: 30 ms, layer thickness: 4 mm, number of averages: 4/slice, matrix 256^2. After a preliminary image, 0.05 mmol/kg of the substance was administered and the signal intensity change (relative to an internal standard) was studied 5, 30, 60, 120 and 180 minutes

Zinc(II)-{N,N'-bis[11-carboxylato-2-oxo-4,7,10-tris-(carboxylatomethyl)-1,4,7,10-tetraazaundecyl]-3,8-bis-(2-(naphth-1-yl)-ethyl)-deuteroporphyrin-IX-13,17-diamide}, digadolinium complex, disodium salt [Example 18d]
tissue concentration, HT29 tumor ([1]; 0.5 hour p.i.): 1.48 ± 0.28 % of the administered dose per gram of tissue net weight
tissue concentration, WiDr tumor ([1]; 0.5 hour p.i.): 1.94 ± 0.78 % of the administered dose per gram of tissue net weight
tissue concentration, blood ([1]; 0.5 hour p.i.): 24.44 ± 2.32 % of the administered dose per gram of tissue net weight
tissue concentration, intestine ([1]; 0.5 hour p.i.): 4.93 ± 0.90 % of the administered dose per gram of tissue net weight
tissue concentration, kidneys ([1]; 0.5 hour p.i.): 11.74 ± 2.38 % of the administered dose per gram of tissue net weight
tissue concentration, lung ([1]; 0.5 hour p.i.): 17.70 ± 2.50 % of the administered dose per gram of tissue net weight
tissue concentration, muscle ([1]; 0.5 hour p.i.): 0.89 ± 0.17 % of the administered dose per gram of tissue net weight
tissue concentration, rest of body ([1]; 0.5 hour p.i.): 2.38 ± 0.27 % of the administered dose per gram of tissue net weight
tissue concentration, skin ([1]; 0.5 hour p.i.): 3.71 ± 0.52 % of the administered dose per gram of tissue net weight
tissue concentration, spleen ([1]; 0.5 hour p.i.): 7.52 ± 0.40 % of the administered dose per gram of tissue net weight
tissue concentration, HT29 tumor ([1]; 3 hours p.i.): 3.53 ± 0.52 % of the administered dose per gram of tissue net weight
tissue concentration, WiDr tumor ([1]; 3 hours p.i.): 4.50 ± 0.98 % of the administered dose per gram of tissue net weight
tissue concentration, blood ([1]; 3 hours p.i.): 16.95 ± 1.53 % of the administered dose per gram of tissue net weight
tissue concentration, intestine ([1]; 3 hours p.i.): 2.31 ± 0.28 % of the administered dose per gram of tissue net weight
tissue concentration, kidneys ([1]; 3 hours p.i.): 20.41 ± 1.88 % of the administered dose per gram of tissue net weight
tissue concentration, liver ([1]; 3 hours p.i.): 16.89 ± 1.15 % of the administered dose per gram of tissue net weight
tissue concentration, lung ([1]; 3 hours p.i.): 17.56 ± 3.34 % of the administered dose per gram of tissue net weight
tissue concentration, muscle ([1]; 3 hours p.i.): 1.04 ± 0.06 % of the administered dose per gram of tissue net weight
tissue concentration, rest of body ([1]; 3 hours p.i.): 2.43 ± 0.13 % of the administered dose per gram of tissue net weight
tissue concentration, skin ([1]; 3 hours p.i.): 4.46 ± 0.53 % of the administered dose per gram of tissue net weight
tissue concentration, spleen ([1]; 3 hours p.i.): 10.82 ± 0.87 % of the administered dose per gram of tissue net weight
tissue concentration, liver [2]: ~17 % of the administered dose per

N,N'-Bis[9-carboxylato-2,5-bis(carboxylatomethyl)-8-(ethoxycarboxymethyl-2,5,8-triazanonyl-carbamoyl]-mesoporphyrin-IX-13,17-diamide, digadolinium complex [Example 1b]
enhancement, HT29 ([3]; 5 min): 1.36
enhancement, Kidneys ([3]; 5 min): 2.89
enhancement, Liver ([3]; 5 min): 1.43
enhancement, Muscle ([3]; 5 min): 1.41
enhancement, WiDr ([3]; 5 min): 1.16
signal intensity change, liver tissue ([3]; 5 minutes p.i.): marked signal intensity increase
enhancement, HT29 ([3]; 15 min): 1.49
enhancement, Kidneys ([3]; 15 min): 2.70
enhancement, Liver ([3]; 15 min): 1.43
enhancement, Muscle ([3]; 15 min): 1.41
enhancement, WiDr ([3]; 15 min): 1.16
enhancement, HT29 ([3]; 30 min): 1.54
enhancement, Kidneys ([3]; 30 min): 2.65
enhancement, Liver ([3]; 30 min): 1.40
enhancement, Muscle ([3]; 30 min): 1.39
enhancement, WiDr ([3]; 30 min): 1.18
enhancement, HT29 ([3]; 45 min): 1.55
enhancement, Kidneys ([3]; 45 min): 2.79
enhancement, Liver ([3]; 45 min): 1.42
enhancement, Muscle ([3]; 45 min): 1.40
enhancement, WiDr ([3]; 45 min): 1.25
enhancement, HT29 ([3]; 60 min): 1.59
enhancement, Kidneys ([3]; 60 min): 2.56
enhancement, Liver ([3]; 60 min): 1.38
enhancement, Muscle ([3]; 60 min): 1.29
enhancement, WiDr ([3]; 60 min): 1.05
enhancement, HT29 ([3]; 75 min): 1.97
enhancement, Kidneys ([3]; 75 min): 2.53
enhancement, Liver ([3]; 75 min): 1.51
enhancement, Muscle ([3]; 75 min): 1.47
enhancement, WiDr ([3]; 75 min): 1.23
maximum enhancement, liver ([3]; 75 minutes p.i.): +50%
maximum enhancement, tumor ([3]; 75 minutes p.i.): +100%
enhancement, HT29 ([3]; 90 min): 1.51
enhancement, Kidneys ([3]; 90 min): 2.40
enhancement, Liver ([3]; 90 min): 1.43
enhancement, Muscle ([3]; 90 min): 1.50
enhancement, WiDr ([3]; 90 min): 1.28
enhancement, HT29 ([3]; 120 min): 1.64
enhancement, Kidneys ([3]; 120 min): 2.15
enhancement, Liver ([3]; 120 min): 1.47
enhancement, Muscle ([3]; 120 min): 1.34
enhancement, WiDr ([3]; 120 min): 1.22
enhancement, HT29 ([3]; 24 hours): 1.05
enhancement, Kidneys ([3]; 24 hours): 1.51
enhancement, Liver ([3]; 24 hours): 1.19
enhancement, Muscle ([3]; 24 hours): 1.24
enhancement, WiDr ([3]; 24 hours): 1.64
signal intensity change, tumor ([3]; after 30 minutes): marked signal intensity increase
signal intensity change, kidneys ([3]; mouse, in vivo): stronger signal intensity change
signal intensity change, muscle ([3]; reference tissue): only a small change

N,N'-Bis[13-carboxylato-4-oxo-6,8,12-tris-(carboxylatomethyl)-3,6,9,12-tetraazatridecyl]-mesoporphyrin--IX-3,17-diamide, digadolinium complex, disodium salt [Example 2c]
time of greatest signal intensity difference [4]: 2 hours p.i. or 3 hours p.i.
enhancement, HT29 ([4]; 5 min): 171 ± 14
enhancement, Kidneys ([4]; 5 min): 169 ± 45
enhancement, Liver ([4]; 5 min): 173 ± 31
enhancement, Muscle ([4]; 5 min): 143 ± 23
enhancement, WiDr ([4]; 5 min): 165 ± 39
signal intensity change, liver tissue and both tumors ([4]; 5 minutes p.i.): marked signal intensity increase
enhancement, HT29 ([4]; 30 min): 169 ± 14
enhancement, Kidneys ([4]; 30 min): 211 ± 33
enhancement, Liver ([4]; 30 min): 157 ± 30
enhancement, Muscle ([4]; 30 min): 157 ± 29
enhancement, WiDr ([4]; 30 min): 170 ± 32
enhancement, HT29 ([4]; 60 min): 168 ± 12
enhancement, Kidneys ([4]; 60 min): 207 ± 31
enhancement, Liver ([4]; 60 min): 170 ± 16
enhancement, Muscle ([4]; 60 min): 120 ± 8
enhancement, WiDr ([4]; 60 min): 153 ± 33
enhancement, HT29 ([4]; 120 min): 178 ± 32
enhancement, Kidneys ([4]; 120 min): 191 ± 37
enhancement, Liver ([4]; 120 min): 179 ± 37
enhancement, Muscle ([4]; 120 min): 126 ± 10
enhancement, WiDr ([4]; 120 min): 153 ± 0
enhancement, HT29 ([4]; 180 min): 136 ± 23
enhancement, Kidneys ([4]; 180 min): 136 ± 25
enhancement, Liver ([4]; 180 min): 167 ± 7
enhancement, Muscle ([4]; 180 min): 112 ± 9
enhancement, WiDr ([4]; 180 min): 117 ± 33
signal intensity change, muscle ([4]; reference tissue): only a small change
signal intensity change, kidneys ([4]; up to 2 hours p.i.): even stronger signal intensity change

13,17-Bis-(15-carboxylato-6-oxo-8,11,14-tris-(carboxylatomethyl)-5,8,11,14-tetraazapentadecyl]-3,8-diethyl-2,7,12,18-tetramethylporphyrin, digadolinium complex, disodium salt [Example 19e]
decrease of tissue concentration except liver, relative to 0.5 hour p.i. ([1]; within 24 hours): 5-20 factor
